# Measurements: patent publication US20230002327A1, “SMALL-MOLECULE REGULATOR OF TLR8” (TSINGHUA UNIVERSITY, priority 2019, published 2023)
# Target: T1, TLR8 (Homo sapiens, UniProt Q9NR97)
# T1 construct: host or cells: HEK-Blue hTLR8 (HEK293-derived SEAP reporter cells)
# T1 sequence (Q9NR97 27-1041): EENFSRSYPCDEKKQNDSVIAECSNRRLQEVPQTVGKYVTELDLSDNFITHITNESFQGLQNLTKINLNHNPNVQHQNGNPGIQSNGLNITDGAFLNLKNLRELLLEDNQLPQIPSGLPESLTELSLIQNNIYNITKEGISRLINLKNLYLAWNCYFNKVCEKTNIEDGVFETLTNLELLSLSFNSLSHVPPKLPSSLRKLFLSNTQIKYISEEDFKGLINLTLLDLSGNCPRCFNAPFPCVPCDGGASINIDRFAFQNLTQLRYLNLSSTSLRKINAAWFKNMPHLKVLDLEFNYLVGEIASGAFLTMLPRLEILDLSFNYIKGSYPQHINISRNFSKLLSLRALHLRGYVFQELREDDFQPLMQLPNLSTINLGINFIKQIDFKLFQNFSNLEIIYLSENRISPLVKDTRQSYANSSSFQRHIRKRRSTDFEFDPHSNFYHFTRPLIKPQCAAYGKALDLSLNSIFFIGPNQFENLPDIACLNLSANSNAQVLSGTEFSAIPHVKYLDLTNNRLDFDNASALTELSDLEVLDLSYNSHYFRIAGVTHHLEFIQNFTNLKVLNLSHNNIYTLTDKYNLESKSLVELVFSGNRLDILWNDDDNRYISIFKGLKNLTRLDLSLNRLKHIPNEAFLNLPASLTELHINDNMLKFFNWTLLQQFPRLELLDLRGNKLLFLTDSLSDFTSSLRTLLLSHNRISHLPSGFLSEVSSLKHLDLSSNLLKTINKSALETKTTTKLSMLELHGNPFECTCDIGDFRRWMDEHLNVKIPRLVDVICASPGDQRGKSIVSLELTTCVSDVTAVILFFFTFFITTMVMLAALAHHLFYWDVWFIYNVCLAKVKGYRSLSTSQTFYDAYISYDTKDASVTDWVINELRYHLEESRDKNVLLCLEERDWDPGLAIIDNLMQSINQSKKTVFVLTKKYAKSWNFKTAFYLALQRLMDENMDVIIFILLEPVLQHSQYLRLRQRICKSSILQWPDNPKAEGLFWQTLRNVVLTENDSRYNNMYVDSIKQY
# Assay: Inhibition of R848-induced signaling in HEK-Blue hTLR8 cell line (Quanti-Blue)
# Format: cell-based
# Conditions: R848-induced signaling, HEK-Blue hTLR8 cell line; value ± standard deviation, at least triplicate
# Procedure: HEK Blue hTLR8 cells or HEK Blue hTLR7 cells were cultured in DMEM medium supplemented with 10% fetal bovine serum, penicillin (100 U/mL) and streptomycin ([…]). Thereafter, cells were seeded in 96-well plate (45,000 cells per well), and were cultured for 24 hours in a humidified incubator (37° C., 5% CO2).
# After 24 hours, the supernatant and suspending cells were aspirated and replaced with fresh serum-free DMEM.
# After 24 hours, 50 μL of the medium was aspirated from each well and then added to a new 96-well plate, followed by the addition of 50 μL of Quanti-Blue in each well and the incubation at 37° C. in darkness. Changes in color would occur in the […] within 60 minutes, and the absorbance was measured at 620 nm by using the multi-mode plate reader Vrioskan Flash. Inhibition rate (%)=[R848 (OD620)−Compound (OD620)]/[R848 (OD620)−Control (OD620)]×100%. Among these, the control group was only added with the same amount of cells. Finally, the software Prism 6.0 was utilized to plot a graph and calculate IC50 values. Or, the activity of the cells treated with ligand and DMSO was defined as 100% activity, and the activity of the untreated cells was defined as 0% activity.
row,IC50,Compound
1,980 nM,"CSc1nnc(CCCO)n1-c1ccccc1Cl [Compound 17, 3-(4-(2-chlorophenyl)-5-(methylthio)-4H-1,2,4-triazole-3-yl)propan-1-ol]"
2,6180 ± 290 nM,"Cc1nnc(SCc2c(Cl)cccc2Cl)n1-c1cccc(F)c1 [Compound 2, 3-((2,6-dichlorobenzyl)thio)-4-(3-fluorophenyl)-5-methyl-4H-1,2,4-triazole]"
3,2130 ± 560 nM,"CSc1nnc(CCCO)n1-c1ccc(F)cc1F [Compound 15, 3-(4-(2,4-difluorophenyl)-5-(methylthio)-4H-1,2,4-triazole-3-yl)propan-1-ol]"
4,630 ± 20 nM,"CCCc1nnc(SC)n1-c1ccc(Cl)cc1Cl [Compound 7, 4-(2,4-dichlorophenyl)-3-(methylthio)-5-propyl-4H-1,2,4-triazole]"
5,800 ± 70 nM,"CSc1nnc(CCCO)n1-c1cccc(Cl)c1Cl [Compound 20, 3-(4-(2,3-dichlorophenyl)-5-(methylthio)-4H-1,2,4-triazole-3-yl)propan-1-ol]"
6,350 ± 20 nM,"CSc1nnc(CCCO)n1-c1cccc(Cl)c1 [Compound 18, 3-(4-(3-chlorophenyl)-5-(methylthio)-4H-1,2,4-triazole-3-yl)propan-1-ol]"
7,3860 ± 310 nM,"COc1ccc(-n2c(CCCO)nnc2SC)cc1 [Compound 25, 3-(4-(4-methoxyphenyl)-5-(methylthio)-4H-1,2,4-triazole-3-yl)propan-1-ol]"
8,8010 ± 130 nM,"OCCCc1nnc(SCC2CC2)n1-c1ccc(Cl)cc1Cl [Compound 13, 3-(5-((cyclopropylmethyl)thio)-4-(2,4-dichlorophenyl)-4H-1,2,4-triazole-3-yl)propan-1-ol]"
9,1950 ± 190 nM,"Fc1cccc(-n2cnnc2SCc2c(Cl)cccc2Cl)c1 [Compound 1, 3-((2,6-dichlorobenyl)thio)-4-(3-fluorophenyl)-4H-1,2,4-triazole]"
10,600 ± 100 nM,"CSc1nnc(CCCO)n1-c1ccc(Cl)c(Cl)c1Cl [Compound 22, 3-(5-(methylthio)-4-(2,3,4-trichlorophenyl)-4H-1,2,4-triazole-3-yl)propan-1-ol]"
11,2810 ± 440 nM,"CSc1nnc(CCCO)n1-c1c(Cl)cc(Cl)cc1Cl [Compound 21, 3-(5-(methylthio)-4-(2,4,6-trichlorophenyl)-4H-1,2,4-triazole-3-yl)propan-1-ol]"
12,11400 ± 700 nM,"OCCCCc1nnc(SCc2c(Cl)cccc2Cl)n1-c1ccc(F)cc1F [Compound 34, 4-(5-((2,6-dichlorobenzyl)thio)-4-(2,4-difluorophenyl)-4H-1,2,4-triazole-3-yl)butan-1-ol]"
13,390 ± 40 nM,"CCSc1nnc(CCCO)n1-c1ccc(Cl)cc1Cl [Compound 11, 3-(4-(2,4-dichlorophenyl)-5-(ethylthio)-4H-1,2,4-triazole-3-yl)propan-1-ol]"
14,8440 ± 780 nM,"OCCCc1nnc(SCc2c(Cl)cccc2Cl)n1-c1ccc(F)cc1F [Compound 33, 3-(5-((2,6-dichlorobenzyl)thio)-4-(2,4-difluorophenyl)-4H-1,2,4-triazole-3-yl)propan-1-ol]"
15,110 ± 10 nM,"CSc1nnc(CCCO)n1-c1cc(Cl)c(Cl)c(Cl)c1 [Compound 23, 3-(5-(methylthio)-4-(3,4,5-trichlorophenyl)-4H-1,2,4-triazole-3-yl)propan-1-ol]"
16,10100 ± 800 nM,"CC(C)Sc1nnc(CCCO)n1-c1ccc(Cl)cc1Cl [Compound 12, 3-(4-(2,4-dichlorophenyl)-5-(isopropylthio)-4H-1,2,4-triazole-3-yl)propan-1-ol]"
17,590 ± 30 nM,"CSc1nnc(CCO)n1-c1ccc(Cl)cc1Cl [Compound 4, 2-(4-(2,4-dichlorophenyl)-5-(methylthio)-4H-1,2,4-triazole-3-yl)ethan-1-ol]"
18,740 nM,"CSc1nnc(CCCO)n1-c1cnc2ccccc2c1 [Compound 36, 3-(5-(methylthio)-4-(quinolin-3-yl)-4H-1,2,4-triazole-3-yl)propan-1-ol]"
19,650 ± 10 nM,"CSc1nnc(CCCO)n1-c1ccc2ncccc2c1 [Compound 37, 3-(5-(methylthio)-4-(quinolin-6-yl)-4H-1,2,4-triazole-3-yl)propan-1-ol]"
